Measurements reported in ChEMBL document CHEMBL5120900, “Structure-Based Discovery of a Series of NSD2-PWWP1 Inhibitors” (J Med Chem, 2022).
Activity calls are given as the source filed them. The calls are words filed in the database; no cut-off is given here.

How the values were obtained:
[1] = molecular target: T1, Histone-lysine N-methyltransferase NSD2 (Homo sapiens, UniProt O96028); assay: Binding affinity to N-terminal His6/Sumo-tagged NSD2 PWWP1 domain (211 to 350 residues) (unknown origin) expressed in Escherichia coli BL21 (DE3) using ATKAARKSAPATGGV-Lys (me)2-KPHRYRPG polypeptide as substrate incubated for 3 hrs by HTRF assay
T1 sequence (O96028 whole entry): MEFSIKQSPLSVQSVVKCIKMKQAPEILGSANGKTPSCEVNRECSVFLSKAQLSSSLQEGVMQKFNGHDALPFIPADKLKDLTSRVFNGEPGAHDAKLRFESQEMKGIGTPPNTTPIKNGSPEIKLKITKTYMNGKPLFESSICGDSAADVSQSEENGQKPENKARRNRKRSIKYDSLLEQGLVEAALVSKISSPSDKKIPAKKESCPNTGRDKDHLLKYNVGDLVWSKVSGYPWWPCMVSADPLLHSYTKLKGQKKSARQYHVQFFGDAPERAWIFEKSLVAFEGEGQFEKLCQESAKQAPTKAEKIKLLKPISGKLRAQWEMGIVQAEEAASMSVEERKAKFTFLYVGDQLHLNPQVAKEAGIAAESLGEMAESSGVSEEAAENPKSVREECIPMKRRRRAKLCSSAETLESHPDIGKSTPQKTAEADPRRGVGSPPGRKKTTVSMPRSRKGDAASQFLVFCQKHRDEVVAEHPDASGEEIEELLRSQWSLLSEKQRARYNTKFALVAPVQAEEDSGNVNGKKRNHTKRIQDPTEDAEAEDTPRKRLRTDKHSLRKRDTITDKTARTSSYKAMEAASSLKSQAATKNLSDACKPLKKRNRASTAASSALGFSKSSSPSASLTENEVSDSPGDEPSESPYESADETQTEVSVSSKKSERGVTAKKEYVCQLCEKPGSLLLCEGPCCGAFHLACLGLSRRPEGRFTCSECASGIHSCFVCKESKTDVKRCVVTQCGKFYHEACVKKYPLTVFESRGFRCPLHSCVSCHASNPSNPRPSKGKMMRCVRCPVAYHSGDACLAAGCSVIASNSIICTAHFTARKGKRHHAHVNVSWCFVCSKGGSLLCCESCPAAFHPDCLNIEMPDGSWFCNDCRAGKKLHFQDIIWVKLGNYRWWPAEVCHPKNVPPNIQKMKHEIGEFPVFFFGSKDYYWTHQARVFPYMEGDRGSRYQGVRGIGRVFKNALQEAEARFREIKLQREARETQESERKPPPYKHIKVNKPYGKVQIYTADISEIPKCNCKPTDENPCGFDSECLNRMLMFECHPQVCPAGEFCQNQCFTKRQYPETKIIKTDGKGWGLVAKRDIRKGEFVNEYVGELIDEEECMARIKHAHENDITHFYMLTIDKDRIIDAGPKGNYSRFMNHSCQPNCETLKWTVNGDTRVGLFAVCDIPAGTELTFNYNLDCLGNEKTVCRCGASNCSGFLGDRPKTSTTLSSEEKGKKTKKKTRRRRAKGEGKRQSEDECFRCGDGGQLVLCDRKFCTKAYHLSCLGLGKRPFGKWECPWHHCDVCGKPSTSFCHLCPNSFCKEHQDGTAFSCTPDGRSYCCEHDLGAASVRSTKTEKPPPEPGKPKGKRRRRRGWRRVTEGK

[2] = molecular target: T2, Histone-lysine N-methyltransferase NSD2 (Homo sapiens) (UniProt O96028); assay: Inhibition of NSD2 in human RS4-11 cells assessed as decrease in RRAS2 gene expression at 10 uM incubated for 72 hrs by RT-PCR analysis; format: cell-based
T2 sequence (whole entry): T1 sequence (O96028 whole entry)

[3] = molecular target: T2, Histone-lysine N-methyltransferase NSD2 (Homo sapiens); assay: Inhibition of NSD2 in human KMS-11 cells assessed as decrease in TGFA gene expression at 10 uM incubated for 72 hrs by RT-PCR analysis; format: cell-based
[4] = system: MV4-11; assay: Antiproliferative activity against human MV4-11 cells assessed as inhibition of cell proliferation measured after 6 days by CCK8 assay; format: functional, cell-based; conditions: MV4-11, 144 h
[5] = system: MM1.S; assay: Antiproliferative activity against human MM1.S cells assessed as inhibition of cell proliferation measured after 6 days by CCK8 assay; format: functional, cell-based; conditions: 144 h
[6] = system: KMS-11; assay: Induction of apoptosis in human KMS-11 cells assessed as viable cells at 5 uM measured after 72 hrs by Annexin V FITC/PI staining based flow cytometry analysis (reference value: 69.4%); format: functional; conditions: read-out: Activity
[7] = system: KMS-11; assay: Induction of apoptosis in human KMS-11 cells assessed as early apoptotic cells at 5 uM measured after 72 hrs by Annexin V FITC/PI staining based flow cytometry analysis (reference value: 16.5 %); format: functional
[8] = system: KMS-11; assay: Induction of apoptosis in human KMS-11 cells assessed as late apoptotic cells at 5 uM measured after 72 hrs by Annexin V FITC/PI staining based flow cytometry analysis (reference value: 13.3 %); format: functional
[9] = system: KMS-11; assay: Induction of apoptosis in human KMS-11 cells assessed as early apoptotic cells at 10 uM measured after 72 hrs by Annexin V FITC/PI staining based flow cytometry analysis (reference value: 16.5 %); format: functional
[10] = system: MV4-11; assay: Induction of apoptosis in human MV4-11 cells assessed as viable cells at 5 uM measured after 72 hrs by Annexin V FITC/PI staining based flow cytometry analysis (reference value: 91.7%); format: functional; conditions: read-out: Activity
[11] = system: MV4-11; assay: Induction of apoptosis in human MV4-11 cells assessed as viable cells at 10 uM measured after 72 hrs by Annexin V FITC/PI staining based flow cytometry analysis (reference value: 91.7%); format: functional; conditions: read-out: Activity
[12] = system: MV4-11; assay: Induction of apoptosis in human MV4-11 cells assessed as early apoptotic cells at 10 uM measured after 72 hrs by Annexin V FITC/PI staining based flow cytometry analysis (reference value: 4.58 %); format: functional
[13] = system: KMS-11; assay: Cell cycle arrest in human KMS-11 cells assessed as increase in accumulation of G0/G1 phase at 5 to 10 uM measured after 24 hrs by PI staining based flow cytometric analysis; format: functional; conditions: dose 5-10 µM
[14] = system: MV4-11; assay: Cell cycle arrest in human MV4-11 cells assessed as increase in accumulation of G0/G1 phase at 5 to 10 uM measured after 24 hrs by PI staining based flow cytometric analysis; format: functional; conditions: dose 5-10 µM

With `Cc1cc(CN2CCC(N)CC2)cc(C)c1-c1ncn(C)c1-c1ccc(C#N)c2ccccc12` the IC50 [1] was 110 nM, the inhibition [2] was “Active” and the inhibition [3] was “Active”. It also gave an IC50 [4] of 2230 nM, an IC50 [5] of 11000 nM and a viability at 5 µM [6] of 61.7%. The Activity [7] was 21.1%, the Activity [8] was 16.5% and the Activity [9] was 28.7%. It also gave a viability at 5 µM [10] of 91%, a viability at 10 µM [11] of 37.3% and an Activity [12] of 41.3%. The Activity [13] was “Active” and the Activity [14] was “Active”.
